Patent US20240390502A1, “DELIVERY SYSTEMS FOR BIOACTIVE LIPIDS” (The Trustees of Columbia University in The City of New York, priority 2021, published 2024)

What was measured:
[1] = test system: hypoxic-ischemic brain injury; assay: hypoxic-ischemic brain injury mouse model, cerebral infarct volume; format: in vivo; conditions: direct acute administration of NPD1 (10 ng, 20 ng) after hypoxic-ischemic injury, compared to control (saline) group; FIG. 2A
[2] = test system: brain mitochondria
Protocol: FIG. 2C is a western blot mean quantification for BAX 6A7 in naïve (n=6), saline (n=7) and NPD1 (n=8) at 4 h after ischemic injury.

## CC/C=C\C[C@H](O)\C=C/C=C/C=C/[C@H](O)C/C=C\C/C=C\CCC(=O)O [NPD1, neuroprotection D1]
[1]
  cerebral infarct volumes: significant reduction in cerebral infarct volumes
[2]; NPD1 treatment after hypoxic-ischemic injury
  mitochondrial Ca2+ buffering capacity: preserved mitochondrial Ca2+ buffering capacity
[2]; NPD1 treatment, BAX 6A7 western blot at 4 h after ischemic injury (FIG. 2C)
  mitochondria-related cell death pathways: reduced mitochondria-related cell death pathways
